This is an account of results in patent US10292976B2, “Anti-malarial agent” (RIKEN, priority 2014, dated 2019).

SMILES strings stand for the structures. Where two headings read alike, the source gives them in different places.

Series [1] deals with Plasmodium falciparum: 3D7 strain. The series is described as follows: Antimalarial activity by LDH assay, 3D7 strain. The class given is cell-based. The following applies: for antimalarial activity (LDH assay, FIG. 2): 10 nM to 10 μM. How it is done: Compounds that chelate metal ions in various modes (L1 to L25 in FIG. 1) were selected, and their antimalarial activities were evaluated by LDH assay. Since infection with malaria causes an increase in the LDH activity, the evaluation can be made based on the criteria that the lower the detected LDH activity, the higher the antimalarial activity.
(§1) The LDH assay was carried out according to the following procedure. That is, 0.5 μL of a solution of each compound in DMSO was added to 100 μL of a culture liquid of erythrocytes (88% RPMI solution; 2% erythrocytes, provided by the Japanese Red Cross Society; and 10% human serum, provided by the Japanese Red Cross Society) infected with falciparum malaria parasites (Plasmodium falciparum: 3D7 strain) (infection rate of erythrocytes, 0.3%). The resulting culture liquid was subjected to culture in a 96-well plate under an atmosphere of 5% CO2, 5% O2, and 90% N2 at 37° C. for three days. Subsequently, the culture liquid was cooled at −80° C. for three hours, and then returned to room temperature. After addition of 150 μL of an LDH enzyme reaction liquid (0.15 mg/mL diaphorase, 37.5 μL/mL of 50% sodium lactate, 0.17 mg/mL NBT, 0.11 mg/mL APAD, 0.16 mL/mL of 1 M Tris-HCl (pH 8), and 8.3 μL/mL of Tween 20), the absorbance at 620 nm was measured.
By the same procedure as in Experiment 1, erythrocytes infected with malaria were treated with L6 (about 40 nM) together with iron ion (about 50 μM), copper ion (about 1 μM), or zinc ion (about 10 μM), and the antimalarial activity was evaluated by LDH assay.
(§2) According to the same procedure as in Experiment 1, the antimalarial activities of metal complexes (M-L6) synthesized by mixing various kinds of metal ions (MSO4: M=Zn, Fe, Cu, Co, Ni, or Mn) with L6 at a molar ratio of 1:1 were evaluated by LDH assay.

For series [2], the system named is HeLa: human cervical cancer cells. The series is described as follows: Cytotoxicity by WST-8 assay, HeLa. The class given is cell-based. The following applies: Table 3, 48 hours, WST-8. The procedure: (§3) After treating various kinds of cells (HEK293T: human embryonic kidney cells; HeLa: human cervical cancer cells; NIH3T3: mouse fibroblast cells; tsNRK: rat kidney cells; and 3Y1: rat fibroblasts) with a metal chelator for 48 hours, the cytotoxicities of the cells were evaluated by WST-8 assay.
(§4) Subsequently, the following cell types: HL60 (human promyelocytic leukemia cells), HeLa (human cervical cancer cells), C3H10T1/2 (murine multipotential mesenchymal cells), and HEK293 (human embryonic kidney 293 cells); were treated with metal complexes M-L6 (M=Zn, Fe, Cu, Co, Ni, and Mn) for 48 hours, and then subjected to WST-8 assay to perform evaluation of the cytotoxicity of each kind of metal complex.
For orientation: Tetrazolium dyes change colour on reduction, which living cells bring about.

The subject of series [3] is HL60 (human promyelocytic leukemia cells). The series is described as follows: Cytotoxicity by WST-8 assay, HL60. The class given is cell-based. The following applies: Table 3, 48 hours. How it is done:
as §4

For series [4], the system named is C3H10T1/2 (murine multipotential mesenchymal cells). The series is described as follows: Cytotoxicity by WST-8 assay, C3H10T1/2. The class given is cell-based. The following applies: Table 3, 48 hours. How it is done:
as §4

The test system of series [5] is HEK293 (human embryonic kidney 293 cells). The series is described as follows: Cytotoxicity by WST-8 assay, HEK293. The class given is cell-based. The following applies: Table 3, 48 hours. The procedure:
as §4

Series [6] is described as follows: Cytotoxicity by WST-8 assay, HEK293T. The class given is cell-based. The note with it: human, HEK293T cells. How it is done:
as §3

Series [7] is described as follows: Cytotoxicity by WST-8 assay, tsNRK. The class given is cell-based. The note with it: rat, tsNRK cells. How it is done: as §3
Series [8] is described as follows: Cytotoxicity by WST-8 assay, 3Y1. The class given is cell-based. The following applies: rat, 3Y1 cells, 3Y1, 48 hours. The procedure:
as §3

The subject of series [9] is drug-resistant malaria parasite K1 strain. The series is described as follows: Antimalarial activity by LDH assay, K1 strain. The class given is cell-based, Plasmodium falciparum. The procedure:
as §1, §2
According to the same procedure as in Experiment 1, the antimalarial activities of L18 and di-2-pyridylketone 4,4-dimethyl-3-thiosemicarbazone (Sigma) against the malaria parasite 3D7 strain and the drug-resistant malaria parasite K1 strain were evaluated by LDH assay.
According to the same procedure as in Experiment 1, the antimalarial activities of 4′-(4-Pyridyl)-2,2′:6′,2″-terpyridine (Tokyo Chemical Industry) against the malaria parasite 3D7 strain and the drug-resistant malaria parasite K1 strain were evaluated by LDH assay.

The nature of series [10]: Cytotoxicity by WST-8 assay, HeLa. The class given is cell-based, human. The following applies: human, HeLa cells, HeLa, 48 hours, read-out: IC50 value, cytotoxicity. How it is done: as §3, §4
Series [11] in a line: Cytotoxicity by WST-8 assay, NIH3T3. The class given is cell-based. The following applies: mouse, NIH3T3 cells, NIH3T3, 48 hours. How it is done: as §3
The subject of another series is malaria parasites. The following applies: cited from earlier work.
For series [12], the system named is Dd2 strain (drug-resistant malaria parasites). The series is described as follows: Antimalarial activity by LDH assay, Dd2 strain. The following applies: Table 2, LDH assay, Experiment 6; read-out: IC50 antimalarial activity, Dd2. The class given is cell-based, Plasmodium falciparum.
Series [13] relates to HL60, HeLa, C3H10T1/2, and HEK293. The series is described as follows: Cytotoxicity by WST-8 assay, summary for the four cell types of Experiment 6. The class given is cell-based. The following applies: C3H10T1/2, HEK293, 48 hours. The procedure:
as §4

Series [14] has as its system mouse malaria parasites (Plasmodium berghei ANKA strain). The series is described as follows: Life-prolonging effect in malaria-infected mice, oral administration. The note with it: oral 200 mg/kg on Day 1, Day 3, and Day 6. The class given is in vivo. The procedure: To mice (7 weeks old, Balb/c, male), erythrocytes infected with mouse malaria parasites (Plasmodium berghei ANKA strain) (total number of erythrocytes per mouse, about 10^7; rate of malaria-infected erythrocytes, 0.3%) were intraperitoneally injected. L6 was administered (20 mg/kg, intraperitoneal injection) to each of the thus obtained malaria-infected mice, and the rate of malaria-infected erythrocytes was measured. As a result, on Day 2 to Day 6 after the infection, the infection rate tended to increase in the negative control to which only DMSO was administered. […] The effect of L6 to reduce the infection rate was almost equivalent to the effect of an existing drug, chloroquine (CQ).
To malaria-infected mice obtained by the same procedure as in Experiment 4, an aqueous solution of L6 or the zinc complex Zn-L6 was orally administered (at a dose of 200 mg/kg on Day 1, Day 3, and Day 6; N=6), and changes in the number of surviving individuals were investigated. […] That is, it is thought that, by formation of metal complex with zinc ion, L6 can remarkably suppress the toxicity in vivo while sufficiently maintaining the antimalarial activity.

[15] abbreviates: Table 2, LDH assay, Experiment 6, read-out: IC50 antimalarial activity, 3D7.
The mark [16] stands for this setting: Plasmodium falciparum, 3D7, 3D7 strain, values in text, read-out: IC50 value for the antimalarial activity based on the LDH assay.
Setting [17] is: Plasmodium falciparum, LDH assay, values in text, read-out: IC50 antimalarial activity against the K1 strain.

Regarding `O=S(=O)([O-])[O-].[Fe+2].c1ccc(CN(Cc2ccccn2)Cc2ccccn2)nc1` [Fe-L6], the IC50 (as a rule, the concentration needed to halve the response being measured) in [1] (setting [15]) is 0.19 µM; in series [2], 9.5 µM; in [3], 4.8 µM; in series [4] it was 9.6 µM; in [5], 6.1 µM.
With `Nc1cc2cccnc2c2ncccc12` [L3, (1,10)-Phenanthrolin-5-amine], the IC50 at 48 h in [6] (1st measurement) was determined as 0.49 µM; in series [6] (2nd measurement) it was 0.47 µM; in [7] (1st measurement), 6.12 µM; in series [7] (2nd measurement) it was 3.08 µM; in series [8] (1st measurement), 0.73 µM; in [8] (2nd measurement) it was 0.67 µM.
As to `CN(C(=S)NN=C(c1ccccn1)c1ccccn1)C1CCCCC1` [di-2-pyridylketone-4-cyclohexyl-4-methyl-3-thiosemicarbazone], the IC50 in [1] (setting [16]) is about 0.002 µM.
Consider `CCN(CC)CCCC(C)Nc1ccnc2cc(Cl)ccc12` (stereo not drawn) [chloroquine, reference compound], for which, in series [1] (Plasmodium falciparum, 3D7, read-out: IC50 value for the antimalarial activity based on the LDH assay), the IC50 was about 0.045 µM.
Take `c1ccc(-c2cccc(-c3ccccn3)n2)nc1` [L18, 2,2′:6′,2″-Terpyridine]: the “antimalarial activity (LDH assay, FIG. 2)” value in series [1] (result in words) is given as “relatively strong antimalarial activity”. In addition, the 50% inhibitory concentration (IC50) is about 0.28 µM in [1] (setting [16]) and about 0.12 µM in series [9] (setting [17]).
In the case of `O=S(=O)([O-])[O-].[Cu+2].c1ccc(CN(Cc2ccccn2)Cc2ccccn2)nc1` [Cu-L6], the IC50 is 0.12 µM in series [1] (setting [15]); 13 µM in series [2]; 5 µM in [3]; 12 µM in [4]; 6 µM in [5].
Take `c1ccc(CN(CCN(Cc2ccccn2)Cc2ccccn2)Cc2ccccn2)nc1` [L7, N,N,N′,N′-Tetrakis(2-pyridylmethyl)ethylenediamine, reference compound]: the half-maximal inhibitory concentration (IC50) at 48 h in [6] (1st measurement) is 1.99 µM; in series [6] (2nd measurement), 3.14 µM; in series [10] (1st measurement (Table 1)), 5.53 µM; in series [10] (2nd measurement (Table 1)), 4.96 µM; in series [11] (1st measurement), 1.66 µM; in [11] (2nd measurement), 1.79 µM. Also, the IC50 at 48 h in [7] (1st measurement) came to 1.84 µM; in series [7] (2nd measurement), 2.09 µM; in [8] (1st measurement) it was 5.11 µM; in [8] (2nd measurement) it was 4.93 µM. Also, the “inhibition of infection with malaria parasites” value in the series with malaria parasites (Non-patent Document 1) is “inhibits infection with malaria parasites”.
As for `CC(=O)N(O)CCCCCNC(=O)CCC(=O)N(O)CCCCCNC(=O)CCC(=O)N(O)CCCCCN` [DFO, desferrioxamine], the 50% inhibitory concentration (IC50) in the series with malaria parasites (Non-patent Document 3, read-out: antimalarial activity IC50) is 21 µM.
As for `O=S(=O)([O-])[O-].[Mn+2].c1ccc(CN(Cc2ccccn2)Cc2ccccn2)nc1` [Mn-L6], the IC50 stood at 0.11 µM in [1] (setting [15]); 4.5 µM in series [2]; 1.5 µM in [3]; 4.2 µM in [4]; 3.7 µM in [5].
`O=S(=O)([O-])[O-].[Co+2].c1ccc(CN(Cc2ccccn2)Cc2ccccn2)nc1` [Co-L6]: the concentration for half-maximal inhibition (IC50) in series [1] (setting [15]) stood at 0.55 µM; in series [2] it was 18 µM; in series [3] it was 6.6 µM; in series [4] it was 18 µM; in series [5], 20.6 µM.
With `O=S(=O)([O-])[O-].[Ni+2].c1ccc(CN(Cc2ccccn2)Cc2ccccn2)nc1` [Ni-L6], the IC50 in series [1] (setting [15]) amounted to 0.74 µM; in [2] it was 32 µM; in series [3], 16 µM; in [4], 54 µM; in [5] it was 47.6 µM.
Consider `O=C(Nc1cccc(CN(Cc2ccccn2)Cc2ccccn2)n1)c1ccccc1` [Bis(2-pyridylmethyl)(6-benzamide-2-pyridylmethyl)amine], for which, in series [1] (setting [16]), the IC50 is about 0.07 µM.
Turning to `c1ccc(-c2cc(-c3ccncc3)cc(-c3ccccn3)n2)nc1` [4′-(4-Pyridyl)-2,2′:6′,2″-terpyridine], the values for the 50% inhibitory concentration (IC50) in series [1] (setting [16]) and in series [9] (setting [17]) were about 0.16 µM and about 0.07 µM, respectively.
On to `O=S(=O)([O-])[O-].[Zn+2].c1ccc(CN(Cc2ccccn2)Cc2ccccn2)nc1` [Zn-L6], for which the “antimalarial activity of metal complex compared to L6 alone” value in series [1] (LDH assay, metal ion:L6 molar ratio 1:1, result in words) is given as “almost the same as that in the case of L6 alone”. Further, the 50% inhibitory concentration (IC50) was 0.093 µM in [1] (setting [15]); 0.089 µM in [9] (Table 2, LDH assay, Experiment 6, read-out: IC50 antimalarial activity, K1); 0.166 µM in [12]; over 100 µM in [2]; over 100 µM in [3]; over 100 µM in [4]. Further, the 50% inhibitory concentration (IC50) in [5] and in series [13] was over 100 µM in each case. Moreover, in series [14], the “cure / infection rate of malaria” value was “completely cured mice, in which the infection rate of malaria was 0%, could be found”. The “life-prolonging effect (number of surviving individuals)” value in [14] is reported as “significantly better life-prolonging effect than in the control”.
Take `CN(C)C(=S)NN=C(c1ccccn1)c1ccccn1` [di-2-pyridylketone 4,4-dimethyl-3-thiosemicarbazone]: the IC50 was about 0.004 µM in series [1] (setting [16]) and about 0.003 µM in series [9] (setting [17]).
In the case of `c1ccc(-c2ccnc3c2ccc2c(-c4ccccc4)ccnc23)cc1` [L17, 4,7-Diphenyl-1,10-phenanthroline], in [1] (result in words), the “antimalarial activity (LDH assay, FIG. 2)” value was “relatively strong antimalarial activity”.
With `C[C@@H]1CC[C@H]2[C@@H](C)C(=O)O[C@@H]3O[C@@]4(C)CC[C@@H]1[C@]32OO4` [artemisinin, reference compound], in series [1] (setting [16]), the IC50 was about 0.016 µM.
